Results from article PMC10758829 (Heliyon, 2023).

How the values were obtained:
[1] = biological target: dipeptidyl peptidase IV (DPP-IV) (Homo sapiens, UniProt P27487); assay: Gly-Pro-pNA chromogenic assay with recombinant enzyme; type: biochemical
[2] = tested on: NCC(=O)N1CCC[C@H]1C(=O)Nc1ccc([N+](=O)[O-])cc1; assay: purified protein; type: biochemical, Homo sapiens

dipeptidyl peptidase IV (DPP-IV), sequence (P27487 39-766): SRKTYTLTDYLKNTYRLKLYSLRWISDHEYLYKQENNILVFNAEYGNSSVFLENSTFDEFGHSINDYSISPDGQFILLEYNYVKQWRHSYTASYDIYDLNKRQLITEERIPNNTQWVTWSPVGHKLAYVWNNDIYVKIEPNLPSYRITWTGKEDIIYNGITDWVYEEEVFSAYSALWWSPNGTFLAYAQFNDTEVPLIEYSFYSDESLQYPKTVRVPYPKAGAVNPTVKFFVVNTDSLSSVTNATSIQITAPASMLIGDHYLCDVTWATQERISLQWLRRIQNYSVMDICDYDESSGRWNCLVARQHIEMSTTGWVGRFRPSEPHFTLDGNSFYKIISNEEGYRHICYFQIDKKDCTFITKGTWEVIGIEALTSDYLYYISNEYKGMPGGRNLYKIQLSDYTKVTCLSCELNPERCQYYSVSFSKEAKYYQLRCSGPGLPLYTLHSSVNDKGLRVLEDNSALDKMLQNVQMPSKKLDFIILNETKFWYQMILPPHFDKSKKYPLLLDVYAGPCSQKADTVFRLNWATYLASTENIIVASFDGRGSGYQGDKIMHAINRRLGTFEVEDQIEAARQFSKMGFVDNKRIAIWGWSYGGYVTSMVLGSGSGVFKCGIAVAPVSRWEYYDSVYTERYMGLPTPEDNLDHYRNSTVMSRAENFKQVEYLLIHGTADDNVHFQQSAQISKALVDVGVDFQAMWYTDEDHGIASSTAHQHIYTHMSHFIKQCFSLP

C=C(C)[C@@H]1CCC(C)=C[C@H]1c1c(O)cc(CCCCC)cc1O [CBD, cannabidiol]
IC50 [1]: 21.9 µM

CCCCCc1cc(O)c(C/C=C(\C)CCC=C(C)C)c(O)c1 [CBG, cannabigerol]
IC50 [1]: 20.2 µM

CCCCCc1cc(O)c2c(c1)OC(C)(C)c1ccc(C)cc1-2 [CBN, cannabinol]
IC50 [1]: 12.9 µM

dipeptidyl peptidase IV (DPP-IV) (Homo sapiens)
Vmax [2]: 1200 µM/min
